The text below walks through data of PMC8744131, “Dimensionless parameter predicts bacterial prodrug success” (Molecular Systems Biology, 2022).

≈ marks a conversion by molar mass, not a printed value. Read-outs that look alike come from different tables or passages of the source. Where no end group is shown, it is not given here. The star is where a group is joined. 5FAM = O=C1OC2(c3ccc(O)cc3Oc3cc(O)ccc32)c2ccc(C(=O)*)cc21; Dabcyl = CN(C)c1ccc(N=Nc2ccc(C(=O)*)cc2)cc1

The subject of one experiment is UTI89 E. coli. Nature of the experiment: Bacterial toxicity of TMP and TM-TMP (CFU / MIC). The experiment is classed as cell-based.
Experiment [1] has as its system OmpT expressed on the surface of E. coli K‐12 BW25113. Nature of the experiment: Cleavage assay with OmpT expressed on the surface of E. coli. To be noted: 37°C, n = 3. The class given is biochemical. The source says: To measure OmpT activity, we synthesized an activity probe (McCarter et al, [2004]; Kwong et al, [2013], [2021]; Holt et al, [2017], [2018]; Mac et al, [2019]; Zhuang et al, [2019]) with free linker peptides containing a fluorophore‐quencher pair, which produced an increase in fluorescence upon proteolytic cleavage.
(§1) Positive control for AMP toxicity (black bar).

In the next experiment the target is OmpT on DH5α E. coli (Escherichia coli, UniProt P09169). The source says: (§2) This allowed us to more rigorously test the model by predicting bacteria‐prodrug response curves across nine distinct combinations of kcat and r values before performing the physical experiments. We experimentally controlled the nine distinct combinations of kcat and r values by altering the ambient temperature and concentration of broth (conditions labeled A1–3, B1–3, and C1–3; Table EV3). We affected the enzymatic activation rate of the prodrug, kcat, by changing temperature as described by the Arrhenius equation (Calvert, [1990]). […] To experimentally validate this, we incubated bacteria with AMP prodrug under the defined nine conditions and quantified the number of living bacteria longitudinally over the course of a 24‐h treatment window.
Figure EV2 Calculating bacterial growth rate and enzymatic activity in the AMP prodrug system • Schematic of the simplified model that only includes bacteria and a substrate probe, which was used to quantify r and kcat from bacterial cleavage assays. • Bacterial cleavage assays (blue line) where we are measuring the increase in fluorescence from the cleavage of the fluor‐quencher substrate probe over time. Bacteria and fluor‐quencher probe are incubated together for 12 h. Then, we fit a simplified model to the results, which is plotted as the dashed line. Each panel is labeled with the environmental condition as described in Table EV3 and correlating with Fig 4.
Table EV3. Additional information for experimental conditions. This information includes incubation temperature (second column from left), the concentration of LB broth by volume (third column from left), growth rate, r (fourth column from left), enzyme catalytic turnover, kcat (fifth column from left), and the bacterial advantage heuristic, BAH (sixth column from left).

Experiment [2] concerns DH5α E. coli. Briefly: Short-time drug dosing experiment with free AMP for a and b. The conditions noted are these: DH5a + AMP prodrug model; from free AMP dosing, t < 10 min, n = 3. The class given is cell-based.
Procedure: Experiment was taken at a short time interval (t < 10 min) so we could calculate the number of bacteria and drug copies consumed in each killing reaction.
In experiment [3] the test system is DH5α E. coli. Briefly: Bacterial Advantage Heuristic (BAH) / model, AMP prodrug system.
Text: as §2

Experiment [4] deals with OmpT (Escherichia coli, UniProt P09169). The conditions noted are these: Fig EV5B, text printed in picture.
Text: as §2

The subject of experiment [5] is DH5α E. coli. Nature of the experiment: Bacteria viability assay, AMP prodrugs with TEV protease or inhibitor. The experiment is classed as cell-based. To be noted: CFU, n = 3–4.
The subject of experiment [6] is OmpT. The conditions noted are these: micromolar concentrations; ref Brannon et al, 2015; cited from earlier work. An excerpt:
To validate the predictions of our mathematical model with an in vitro bacteria‐activated prodrug system, we synthesized a protease‐activated AMP prodrug. This AMP prodrug comprised cationic (polyarginine, R9) antimicrobial peptides (AMP) in charge complexation with anionic peptide locks (polyglutamic acid, E13) by a linker peptide (RRS|RRV) specific for the ubiquitous bacterial protease OmpT (Olson et al, [2009]; preprint: Holt et al, [2019]). Upon proteolytic cleavage of the linker, the hairpin prodrug is unlocked to release free AMP (Fig 3A). To measure OmpT activity, we synthesized an acti ...

Experiment [7] has as its system DH5α E. coli. Nature of the experiment: Bacteria viability assay (CFU), AMP system. The experiment is classed as cell-based. As to the method: as §1
Figure EV4 Parent drug control for all conditions in AMP prodrug system Parent drug (R9, polyarginine) controls for conditions testing different media conditions and temperatures in the AMP prodrug studies.
DH5α Escherichia coli were a gift from Todd Sulchek's BioMEMS lab at Georgia Tech. E. coli were cultured in LB broth (Lennox) at 37°C and plated on LB agar (Lennox) plates. LB broth was purchased from Millipore Sigma (Burlington, MA) and LB agar was purchased from Invitrogen (Carlsbad, CA). AMP and locked AMP were custom ordered from Genscript (Piscataway, NJ). See Table EV1 for more information. Bacteria were grown to a concentration of 10^9 CFU/ml before being used for experiments. Concentration was estimated by measuring the OD600 of the bacterial suspension, and assuming an OD600 of 1.000 corresponds to a concentration of 8 × 10^8 CFU/ml. Bacterial cell viability was measured by making eight 10‐fold serial dilutions, and plating three 10‐µl spots on an LB agar plate. Plates were incubated overnight at 37°C, and CFUs were counted. Untreated bacteria CFU counts served as control for 0% cytotoxicity, and bacteria + IPA (or 0 countable CFUs) served as control for 100% cytotoxicity.

OmpT on DH5α E. coli, sequence (P09169 21-317): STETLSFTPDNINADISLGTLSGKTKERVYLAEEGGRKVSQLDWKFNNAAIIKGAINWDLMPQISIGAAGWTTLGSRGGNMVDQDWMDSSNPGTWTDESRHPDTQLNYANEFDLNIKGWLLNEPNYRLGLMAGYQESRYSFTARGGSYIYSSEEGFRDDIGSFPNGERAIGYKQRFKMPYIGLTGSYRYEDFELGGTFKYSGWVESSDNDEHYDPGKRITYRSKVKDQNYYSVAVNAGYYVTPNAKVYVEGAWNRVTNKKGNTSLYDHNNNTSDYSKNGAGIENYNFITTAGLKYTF
OmpT (Escherichia coli, UniProt P09169), sequence (P09169 21-317): as above
Text for UTI89 E. coli: Just as with our earlier experiments, we measured (i) the number of bacteria and (ii) the number of drug molecules consumed in each killing reaction to calculate the parameters a and b, respectively (Fig EV8).

Consider `COc1cc(Cc2cnc(N)nc2N)cc(OC)c1OC` [TMP, trimethoprim], for which, in the experiment on UTI89 E. coli (5 mM GSH vs no GSH, surviving CFU), the “change in number of bacteria killed on adding GSH” value was “did not significantly change”. Besides, the “efficiency at killing bacteria vs TM-TMP” value with UTI89 E. coli (37°C, 75% broth, n = 3) is reported as “significantly more efficient at killing UTI89 bacteria”. Further, in the experiment on UTI89 E. coli (Escherichia coli, 37°C, 75% broth, n = 3, read-out: minimum inhibitory concentration (MIC)), the MIC is 3.2 µM (≈ 0.929 µg/mL).
Regarding “Dabcyl-RRSRRVK(5FAM) [OmpT Probe, free linker peptide RRSRRV with fluorophore-quencher pair]”, in [1] (OmpT-positive E. coli K‐12 BW25113 vs OmpT genetic knockout, fluorescence 485/528 nm, 60–120 min), the “linker specificity: cleavage activity by parent strain vs OmpT knockout” value is listed as “only observed activity in samples incubated with the parent strain (i.e., OmpT‐positive)”. Further, the “cleavage activity in presence of aprotinin” value in experiment [1] (recombinant OmpT or E. coli surface OmpT with aprotinin, fluorescence) is on record as “no activity in samples containing the serine protease inhibitor, Aprotinin”.
Take “EEEEEEEEEEEEERRSRRVRRRRRRRRR [Locked AMP (linker 1), R9 antimicrobial peptide locked by E13 via OmpT-cleavable linker RRSRRV; default locked AMP]”: the kcat at OmpT on DH5α E. coli (condition A1: 37 °C, 0% LB broth, r 0.1 h^-1) was determined as 25 h^-1 x 10^10; on OmpT on DH5α E. coli (condition A2: 30 °C, 2% LB broth, r 0.14 h^-1), 13.6 h^-1 x 10^10; at OmpT on DH5α E. coli (condition A3: 37 °C, 2% LB broth, r 0.3 h^-1), 22 h^-1 x 10^10; on OmpT on DH5α E. coli (condition B1: 37 °C, 4% LB broth, r 0.5 h^-1), 15 h^-1 x 10^10; at OmpT on DH5α E. coli (condition B2: 37 °C, 6% LB broth, r 0.85 h^-1) it was 13.6 h^-1 x 10^10; at OmpT on DH5α E. coli (condition B3: 37 °C, 20% LB broth, r 2.2 h^-1), 1 h^-1 x 10^10. In addition, the kcat came to 5.2 h^-1 x 10^10 on OmpT on DH5α E. coli (condition C1: 30 °C, 20% LB broth, r 1.4 h^-1); 4 h^-1 x 10^10 at OmpT on DH5α E. coli (condition C2: 30 °C, 66% LB broth, r 1.6 h^-1); 6 h^-1 x 10^10 at OmpT on DH5α E. coli (condition C3: 37 °C, 66% LB broth, r 3 h^-1). Also, the “a, bacterial death rate constant” value in the experiment on DH5α E. coli [2] came out at 1e-13 µL/h. For the same compound, the “b, drug decay rate constant” value in the experiment on DH5α E. coli [2] stood at 0.02 µL/h. Moreover, the “ratio of a to b” value in the experiment with DH5α E. coli [3] was 0.5 × 10^−11. In addition, the “catalytic efficiency kcat/Km (rank in words)” value on OmpT [4] is “High”. For the same compound, the elimination of bacteria result with DH5α E. coli [5] (OmpT-specific locked AMP alone, natively expressed OmpT) was “elimination of bacteria”.
Consider “EEEEEEEEENLYFQGRRRRRRRR [Locked AMP (linker 3), AMP prodrug with linker ENLYFQG, specific to TEV protease]”, for which the “catalytic efficiency kcat/Km (rank in words)” value on OmpT [4] is “Lowest”. In the experiment with DH5α E. coli [5] (TEV-specific locked AMP alone (no TEV protease)), the “reduction of bacteria load” value is listed as “did not significantly reduce bacteria load”. Further, the elimination of bacteria entry with DH5α E. coli [5] (TEV-specific locked AMP plus TEV protease) is “elimination of bacteria”.
Take aprotinin [reference compound]: the “reduction of bacteria load” value with DH5α E. coli [5] (control with OmpT inhibitor aprotinin plus OmpT-specific locked AMP) is listed as “did not significantly reduce bacteria load”. For the same compound, the “inhibition of OmpT” value in the experiment on OmpT [6] is “inhibits OmpT when present in micromolar concentrations”.
As for polyarginine [free AMP], in the experiment with DH5α E. coli [7] (free AMP, CFU, n = 3–4 biological replicates, one-way ANOVA), the “reduction in colonies vs untreated controls” value is recorded as “significant reduction in colonies compared to untreated controls”. Further, in the experiment with DH5α E. coli [7] (nine conditions A1–C3 (30/37 °C, 0–66% LB broth), 24 h, serial CFU, n = 3), the treatment success entry is reported as “successfully treated bacteria in all nine conditions tested”.
